Columns and labels:
[1] = tested on: 293FlpIN/clone E-3 mock transfected cells; test: Bodipy-Cyclopamine specific binding curve, mock transfected cell line clone E-3; conditions: stable mock transfected cell line clone E-3
Smo receptor = target: T1, Smo receptor (Homo sapiens, UniProt Q99835); test: Bodipy-Cyclopamine specific binding curve, Smo-FLAG transfected cell line clone 3-5; conditions: stable Smo-FLAG transfected cell line clone 3-5
T1 construct: expressed in transfected cells; template pCMV6-XL5-Smo, Origene cat; TC122724
T1 sequence (Q99835 28-787): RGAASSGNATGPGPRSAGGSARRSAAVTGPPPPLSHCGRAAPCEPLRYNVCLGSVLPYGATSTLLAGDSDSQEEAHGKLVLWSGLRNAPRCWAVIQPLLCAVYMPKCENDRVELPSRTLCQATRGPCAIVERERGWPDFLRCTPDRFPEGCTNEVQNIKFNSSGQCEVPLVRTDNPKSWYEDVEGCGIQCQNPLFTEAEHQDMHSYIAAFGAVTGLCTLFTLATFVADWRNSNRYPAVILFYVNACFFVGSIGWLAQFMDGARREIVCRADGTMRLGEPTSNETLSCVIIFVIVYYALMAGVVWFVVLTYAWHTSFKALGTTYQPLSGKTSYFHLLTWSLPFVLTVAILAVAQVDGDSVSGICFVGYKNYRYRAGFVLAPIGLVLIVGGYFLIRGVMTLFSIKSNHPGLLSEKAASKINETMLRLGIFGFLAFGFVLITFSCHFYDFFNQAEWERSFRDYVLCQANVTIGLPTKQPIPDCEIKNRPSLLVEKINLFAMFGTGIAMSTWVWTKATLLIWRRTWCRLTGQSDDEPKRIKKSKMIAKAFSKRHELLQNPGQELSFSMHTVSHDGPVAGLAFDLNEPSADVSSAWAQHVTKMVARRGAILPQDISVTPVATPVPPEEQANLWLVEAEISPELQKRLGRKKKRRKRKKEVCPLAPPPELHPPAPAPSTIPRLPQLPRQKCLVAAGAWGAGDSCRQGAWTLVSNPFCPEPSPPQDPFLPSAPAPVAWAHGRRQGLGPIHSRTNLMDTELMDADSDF

Work on `CC1=C2CC3C(CC=C4C[C@@H](O)CCC43C)C2CCC12O[C@@H]1CC(C)CN(CCNC(=O)CCCCCNC(=O)CCC3=[N+]4C(=Cc5c(C)cc(C)n5[B-]4(F)F)C=C3)C1C2C` (some centres unmarked) [Bodipy-Cyclopamine] yielded a Kd [1] of 115 nM and a Kd (Smo receptor) of 44.3 nM.

From patent US8835648B2, “Hedgehog pathway antagonists and therapeutic applications thereof” (Siena Biotech S.p.A., priority 2009, dated 2014)
